From PubChem BioAssay (NCI)
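Compound exposure: 48 hours, 5 concentrations, 96-well plates. At the TGI there is no net growth.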

Tests used:
Assay in all cases: NCI anticancer screen, dose series, 48 h
SNB-78 CNS = system: SNB-78 CNS
SF-268 CNS = system: SF-268 CNS
SK-MEL-2 melanoma = system: SK-MEL-2 melanoma
SNB-19 CNS = system: SNB-19 CNS
UACC-62 melanoma = system: UACC-62 melanoma
K-562 leukemia = system: K-562 leukemia
SN12C renal = system: SN12C renal
UACC-257 melanoma = system: UACC-257 melanoma
HL-60(TB) leukemia = system: HL-60(TB) leukemia
NCI-H23 lung = system: NCI-H23 lung
SW-620 colon = system: SW-620 colon
A549 NSCLC = system: A549 NSCLC
HOP-18 NSCLC = system: HOP-18 NSCLC
HT29 colon = system: HT29 colon
SK-MEL-28 melanoma = system: SK-MEL-28 melanoma
M19-MEL melanoma = system: M19-MEL melanoma
LXFL 529 NSCLC = system: LXFL 529 NSCLC
IGROV1 ovarian = system: IGROV1 ovarian
OVCAR-8 ovarian = system: OVCAR-8 ovarian
SK-MEL-5 melanoma = system: SK-MEL-5 melanoma
TK-10 renal = system: TK-10 renal
M14 melanoma = system: M14 melanoma
MOLT-4 leukemia = system: MOLT-4 leukemia
KM12 colon = system: KM12 colon
HCC-2998 colon = system: HCC-2998 colon
NCI-H522 lung = system: NCI-H522 lung
UO-31 renal = system: UO-31 renal
MALME-3M melanoma = system: MALME-3M melanoma
CCRF-CEM leukemia = system: CCRF-CEM leukemia
OVCAR-3 ovarian = system: OVCAR-3 ovarian
RPMI-8226 leukemia = system: RPMI-8226 leukemia
SR leukemia = system: SR leukemia
ACHN renal = system: ACHN renal
DMS 114 small cell lung = system: DMS 114 small cell lung
HCT-116 colon = system: HCT-116 colon
HOP-92 NSCLC = system: HOP-92 NSCLC
RXF 393 renal = system: RXF 393 renal
RXF-631 renal = system: RXF-631 renal
HOP-62 NSCLC = system: HOP-62 NSCLC
786-0 renal = system: 786-0 renal
HCT-15 colon = system: HCT-15 colon
U251 CNS = system: U251 CNS
SF-295 CNS = system: SF-295 CNS
COLO 205 colon = system: COLO 205 colon
SNB-75 CNS = system: SNB-75 CNS
DLD-1 colon = system: DLD-1 colon
EKVX NSCLC = system: EKVX NSCLC
SK-OV-3 ovarian = system: SK-OV-3 ovarian
LOX IMVI melanoma = system: LOX IMVI melanoma
KM20L2 colon = system: KM20L2 colon
CAKI-1 renal = system: CAKI-1 renal
XF 498 CNS = system: XF 498 CNS
OVCAR-4 ovarian = system: OVCAR-4 ovarian
NCI-H460 lung = system: NCI-H460 lung
OVCAR-5 ovarian = system: OVCAR-5 ovarian
DMS 273 small cell lung = system: DMS 273 small cell lung
A498 renal = system: A498 renal

Measured: TGI

O=c1cc(-c2ccccc2)oc2cc(OCCSCCCCCCCCCCSCCOc3ccc4c(=O)cc(-c5ccccc5)oc4c3)ccc12
not listed: XF 498 CNS | OVCAR-4 ovarian | NCI-H460 lung | OVCAR-5 ovarian | DMS 273 small cell lung | A498 renal
> 100 µM: all other assays above

CSc1nc2[nH]c(=O)c(C)nc2c(=O)[nH]1
not listed: SNB-78 CNS | HOP-18 NSCLC | RXF-631 renal
> 100 µM: all other assays above
